The target in assay [1] is T1, FXR-LBD (pFA-FXR-LBD, Gal4 fusion) in BHK21 cells (Homo sapiens, UniProt Q96RI1).
T1 sequence (Q96RI1 262-486 limits assumed): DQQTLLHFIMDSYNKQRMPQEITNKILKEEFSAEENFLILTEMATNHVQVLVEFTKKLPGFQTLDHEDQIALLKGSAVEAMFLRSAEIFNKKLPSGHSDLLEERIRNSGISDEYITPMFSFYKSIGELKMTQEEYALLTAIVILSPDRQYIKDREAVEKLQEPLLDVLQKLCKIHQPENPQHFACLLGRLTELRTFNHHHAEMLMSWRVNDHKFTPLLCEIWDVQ
The experiment in a line: Luciferase transcriptional reporter gene assay. In kind it is cell-based. An excerpt: (§1) Bacterial and mammalian expression vectors were constructed to produce glutathione-s-transferase (GST) and Gal4 DNA binding domain (GAL) proteins fused to the ligand binding domain (LBD) of human FXR (aa 193-473). To accomplish this, the portions of the sequences encoding the FXR LBD were amplified by polymerase chain reaction (PCR) from a full-length clone by PCR and then subcloned into the plasmid vectors. The final clone was verified by DNA sequence analysis.
Luciferase Transcriptional Reporter Gene Assays
Baby hamster kidney cells (BHK21 ATCC CCL10) were grown in DMEM medium containing 10% FBS at 37° C. in a […]:5% CO2 atmosphere. Cells were seeded in 6-well plates at a density of 10^5 cells/well and then transfected with the pFA-FXR-LBD or expression plasmid plus a reporter plasmid. […] Six hours following transfection, the cells were harvested by trypsinization and seeded in 96-well plates at a density of 10^4 cells/well. […] Luminescence, as a measure of luciferase activity, was detected in a Packard TopCount. Transcriptional activation in the presence of a test substance was expressed as fold-change in luminescence compared to that of cells incubated in the absence of the substance. EC50 values were calculated using the XLfit program (ID Business Solutions Ltd. UK).

The target of assay [2] is T2, FXR ligand binding domain (GST-FXR LBD fusion protein) (Homo sapiens, UniProt Q96RI1).
T2 construct: made in house; host or cells: E. coli BL21 (pLysS)
T2 sequence (Q96RI1 193-472 isoform Q96RI1-2 limits assumed): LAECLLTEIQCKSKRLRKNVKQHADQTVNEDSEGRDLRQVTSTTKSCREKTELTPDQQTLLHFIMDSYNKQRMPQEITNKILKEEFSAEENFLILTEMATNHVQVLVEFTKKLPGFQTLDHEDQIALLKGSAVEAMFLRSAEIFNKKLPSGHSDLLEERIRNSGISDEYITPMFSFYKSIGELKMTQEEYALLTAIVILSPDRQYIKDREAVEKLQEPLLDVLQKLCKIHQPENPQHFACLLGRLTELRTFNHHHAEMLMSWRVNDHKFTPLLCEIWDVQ
In words: Radioligand binding assay (scintillation proximity, radioligand displacement). How it is done:
The following tests were carried out in order to determine the activity of the compounds of formula (I). Background information on the binding assay can be found in: Nichols J S et al. “Development of a scintillation proximity assay for peroxisome proliferator-activated receptor gamma ligand binding domain”, (1998) Anal. Biochem. 257: 112-119.
as §1
The induction, expression, and subsequent purification of GST-LBD fusion protein was performed in E. coli strain BL21 (pLysS) cells by standard methods (Current Protocols in Molecular Biology, Wiley Press, ed. Ausubel et al).
Radioligand Binding Assay
Binding of test substances to the FXR ligand binding domain was assessed in a radioligand displacement assay. […] All binding assays were performed in 96-well plates and the amount of bound ligand was measured on a Packard TopCount using OptiPlates (Packard). […]
A general note: SPA uses beads or plates that emit light when radiolabelled molecules are held near them.

Take `CC(C)CC(C(=O)NC1CCCCC1)n1c(-c2ccc(Cl)cc2)nc2ccccc21` (stereo not shown) [Example 2, 2-[2-(4-chloro-phenyl)-benzoimidazol-1-yl]-4-methyl-pentanoic acid cyclohexylamide]: in assay [1], the midpoint of the response, the EC50, lay at 700 nM. Besides, the IC50 in assay [2] came to 1500 nM.
On the same counts, the results for `COc1ccc(-c2nc3ccccc3n2C(C(=O)NCc2ccccc2)C2CCCCC2)c(OC)c1` (stereo not shown) [Example 34, N-benzyl-2-cyclohexyl-2-[2-(2,4-dimethoxy-phenyl)-benzoimidazol-1-yl]-acetamide] are 86 nM and 500 nM.

One may read the EC50 as the concentration giving half of the maximal effect. As a reminder, the IC50 is the concentration at which inhibition is half-maximal. A low value points to higher potency.

The values above are taken from patent US7645785B2, “Benzimidazole derivatives” (Hoffmann-La Roche Inc., priority 2006, dated 2010).
